{"source": "paper PMC6930524", "about": "“A Prospective Repurposing of Dantrolene as a Multitarget Agent for Alzheimer’s Disease” (Molecules, 2019)", "key": {"[1]": {"biological_target": "T1, BChE from human serum (hBChE) (Homo sapiens, UniProt P06276)", "T1 construct": "BChE from human serum (50 U/mg); purchased Sigma-Aldrich Europe (Milan, Italy); host or cells: human serum", "T1 sequence (P06276 29-602)": "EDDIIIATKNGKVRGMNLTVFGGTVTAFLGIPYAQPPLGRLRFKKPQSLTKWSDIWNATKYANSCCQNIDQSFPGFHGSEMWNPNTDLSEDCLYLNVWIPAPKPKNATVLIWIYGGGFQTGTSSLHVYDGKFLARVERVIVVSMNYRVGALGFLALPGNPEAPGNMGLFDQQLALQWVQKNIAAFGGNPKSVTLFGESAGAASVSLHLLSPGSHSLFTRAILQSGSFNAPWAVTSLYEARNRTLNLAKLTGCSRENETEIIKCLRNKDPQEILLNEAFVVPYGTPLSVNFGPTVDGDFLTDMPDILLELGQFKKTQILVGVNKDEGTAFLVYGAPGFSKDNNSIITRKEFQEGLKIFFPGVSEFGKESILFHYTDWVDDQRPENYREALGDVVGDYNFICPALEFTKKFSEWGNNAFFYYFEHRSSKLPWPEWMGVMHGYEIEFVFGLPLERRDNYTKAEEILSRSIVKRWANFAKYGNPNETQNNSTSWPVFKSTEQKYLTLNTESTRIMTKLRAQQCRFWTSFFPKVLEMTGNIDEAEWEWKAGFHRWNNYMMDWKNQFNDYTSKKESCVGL", "test": "hBChE inhibition, Ellman's spectrophotometric assay", "type": "biochemical", "conditions": "mean ± SEM of three independent experiments", "protocol": "An already published method was used to apply the Ellman’s spectrophotometric assay to the 96-well plate technique. […] Experiments were performed in duplicate in transparent, flat-bottomed polystyrene 96-well microtiter plates, and readings made with Tecan Infinite M1000 Pro instrument."}, "[2]": {"test": "DPPH radical scavenging assay", "type": "physicochemical", "conditions": "compound 50 μM, DPPH 100 μM", "text": "(§1) Starting from these evidences, we tested DAN in two in vitro models of radical scavenging activity, i.e., the 1,1-diphenyl-2-picryl-hydrazyl (DPPH) and 2,2′-azinobis-(3-ethylbenzothiazoline-6-sulfonic acid) (ABTS) free radical production. Both generate stable nitrogen radicals showing high absorption in visible spectrum, thus allowing easy and straightforward spectrophotometric measures. […] It can be assumed that the antioxidant activity of DAN is independent from its radical scavenging properties.\n(§2) Already published protocols for DPPH and […] radical scavenging were used. The scavenging of the radical DPPH^·, or the monocation radical ABTS^·+, were determined by measuring the loss of absorbance at 515 or 755 nm, respectively. Samples were prepared in clear polystyrene flat-bottomed 96-well microplates. […] A preliminary absorbance reading at 755 nm allowed to determine the actual ABTS^·+ concentration (normally 60–70 μM; extinction coefficient ε = 12,000) and set the final concentration of inhibitors to 0.2[ABTS^·+]. 215 μL of ABTS^·+ solution were mixed with 35 μL of stock solution of inhibitors and the decrease in absorbance was monitored. Antioxidant activity was determined from Equation (2) as the percentage of radical production of inhibitor containing samples, compared with control: % radical production = 100 × ABSsample/ABScontrol(2)"}, "[3]": {"test": "ABTS radical scavenging assay", "type": "physicochemical", "conditions": "compound at 0.2·[ABTS+]", "text": "as §1, §2"}, "[4]": {"biological_target": "T2, recombinant wild-type (WT) CAC (Rattus norvegicus, UniProt P97521)", "T2 construct": "made in house; host or cells: Escherichia coli C0214", "T2 sequence (P97521 1-301)": "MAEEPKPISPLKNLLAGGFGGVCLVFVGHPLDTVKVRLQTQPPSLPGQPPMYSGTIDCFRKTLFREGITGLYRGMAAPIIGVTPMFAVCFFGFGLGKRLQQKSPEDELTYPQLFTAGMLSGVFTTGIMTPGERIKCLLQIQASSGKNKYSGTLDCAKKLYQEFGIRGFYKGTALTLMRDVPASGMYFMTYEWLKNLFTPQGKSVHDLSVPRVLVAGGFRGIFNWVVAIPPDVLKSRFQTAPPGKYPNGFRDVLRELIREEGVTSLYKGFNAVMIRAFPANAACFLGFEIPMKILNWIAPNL", "test": "Transport activity of purified recombinant WT CAC reconstituted into liposomes", "type": "biochemical", "protocol": "To detect the effect of DAN on native CAC, mitochondrial extract was reconstituted into liposomes and transport activity was measured adding various concentrations of compound. In Figure 7A, the dose–response curve is shown. […] Thus, the effect of different concentrations of DAN was tested also on the purified recombinant wild-type (WT) CAC carrier reconstituted into liposomes, measuring the antiport rate of carnitine.\nThe reducing properties of DAN were studied on the recombinant WT CAC with the protein at different states of oxidation. Figure 8B highlights that when the carrier was incubated during the transport activity with 1 mM dithioerythritol (DTE), 10 µM DAN was able to reduce a major aliquot of oxidized protein (70% recovery of activity compared to the control). […] To identify the cysteines responsible for the activation of the CAC carrier, the proteoliposomes of the WT protein and the mutants C136S, C155S, C136/155S, and C-lessV (C23V/C58V/C89S/C136V/C155V/C283S) were incubated with 10 μM DAN. […] Further evidence of the reducing action of DAN on CAC was obtained by oxidation of the reconstituted WT protein under controlled conditions, i.e., in the presence or absence of hydrogen peroxide and its subsequent degradation by the enzyme catalase. […] The addition of 20 µM DAN led to a significant recovery (about 80%) of the transport function, after treatment of the carrier with H2O2.\nThe previously constructed pMW7-WTrat CAC recombinant plasmid was used as a template to introduce mutations in the CAC protein using complementary mutagenic primers and the High Fidelity PCR System (Roche, Basel, Switzerland). The PCR products were purified by the QIAEX II Gel Extraction Kit (QIAGEN, Milan, Italy), digested with the restriction enzymes Nde I and Hind III (New England Biolabs, Ipswich, MA, USA) and ligated into the pMW7 cloning vector (given as a gift). All resulting pMW7-rat CAC constructs were verified by DNA sequencing. Except for the desired base changes, all the sequences corresponded to the CAC coding sequence. Bacterial overexpression was obtained using the expression vector of Escherichia coli C0214 (given as a gift). Wild-type and mutants rat CAC inclusion body fractions were isolated from E. coli, solubilized, and purified as previously described.\nMitochondrial rat liver extract (0.3 mg proteins in 3% Triton X-100) containing native CAC was reconstituted into liposomes by removing the detergent from the mixed micelles through a hydrophobic ion-exchange column containing the resin Amberlite XAD-4, as described previously. The reconstitution mixture of mitochondrial or recombinant CAC proteins was composed of protein, 1% Triton X-100, 10 mg of egg yolk phospholipids (L-α-phosphatidylcholine from fresh turkey egg yolk), in the form of sonicated liposomes, 30 mM NaH2PO4 at pH 7.0, 15 mM carnitine, in a final volume of 680 μL. This mixture was passed 15 times, at room temperature, through the same Amberlite column (Pasteur pipette filled with 0.5 g resin) pre-equilibrated with a buffer containing 30 mM NaH2PO4 at pH 7.0 and 15 mM carnitine.\nBefore starting the transport activity, proteoliposomes were passed through a Sephadex G-75 column (0.7 cm diameter; 15 cm height; Pharmacia, Milan, Italy) to remove the external substrate. The turbid eluate (550 μL) from the Sephadex column was collected and used for transport measurement by the inhibitor-stop method. For uptake measurements, transport at 25 °C was started by adding 0.1 mM [^3H]-carnitine to proteoliposomes and stopped by the addition of 0.1 mM NEM. In control samples, the inhibitor was added together with the labeled substrate at time zero. The experimental values were corrected by subtracting control values. […]"}, "[5]": {"design": "method as in PMID 11735355", "conditions": "cited from earlier work"}}, "data": [{"smiles": "O=C1CN(/N=C/c2ccc(-c3ccc([N+](=O)[O-])cc3)o2)C(O)=N1", "note": "[Dantrolene]", "values": [{"measurement": "hBChE IC50", "setting": "[1]", "result": "No inhibition"}, {"measurement": "DPPH radical scavenging activity", "setting": "[2]", "result": "no activity"}, {"measurement": "ABTS radical scavenging activity", "setting": "[3]", "result": "no activity"}, {"measurement": "transport activity of WT CAC over time compared to the control", "setting": "[4]; 10 μM, average values over time intervals", "result": "around 160%"}, {"measurement": "recovery of activity compared to the control", "setting": "[4]; 10 µM, carrier incubated with 1 mM DTE", "result": 70, "unit": "%"}, {"measurement": "recovery of activity", "setting": "[4]; 10 µM, carrier incubated with 50 mM DTE", "result": 25, "unit": "%"}, {"measurement": "increase in transport activity on WT", "setting": "[4]; 10 μM, proteoliposomes of WT protein", "result": 180, "unit": "%"}, {"measurement": "recovery of the transport function after H2O2", "setting": "[4]; 20 µM, after 1 mM H2O2 for 10 min at 37 °C (activity decreased to about 50% without compound)", "result": "about 80%"}, {"measurement": "EC50", "setting": "[4]; after 30 min of incubation, read-out: EC50 of activation of recombinant WT CAC", "result": "9.3 ± 3.1", "unit": "µM"}, {"measurement": "concentration for whole activation of the WT protein", "setting": "[4]; dose–response curve, 30 min", "result": "above 50 μM"}, {"measurement": "antioxidant potency, Fe3+/Fe2+ reduction", "setting": "[5]", "result": "high antioxidant potency"}]}]}
